Assay results published in patent publication US6054435A, “6-O-substituted macrolides having antibacterial activity” (priority 1999, dated 2000).
Converted amounts (≈) assume the structure as drawn.

Columns and labels:
Test in all cases: in vitro antibacterial activity (MIC), agar dilution
Format in all cases: cell-based
Candida albicans CCH 442 = details: organism code TT; BHI agar, 35-37° C., 20 to 24 hours; unit assumed
In short: (§1)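 Test compound serially diluted in Brain Heart Infusion agar across twelve plates; inocula of 1:100 dilution (1:10 for slow growers such as Streptococcus) applied by Steers replicator. MIC taken visually as lowest concentration giving no growth, slight haze or sparse isolated colonies versus drug-free growth control.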

[1] = system: Enterococcus faecium ATCC 8043; details: organism code II; BHI agar, 35-37° C., 20 to 24 hours; unit assumed
In short: as §1

Escherichia coli DC-2 = details: organism code SS; BHI agar, 35-37° C., 20 to 24 hours; unit assumed
In short: as §1

Escherichia coli JUHL = details: organism code QQ; BHI agar, 35-37° C., 20 to 24 hours; unit assumed
In short: as §1

Escherichia coli SS = details: organism code RR; BHI agar, 35-37° C., 20 to 24 hours; unit assumed
In short: as §1

[2] = system: Haemophilis Influenzae DILL AMP R; details: organism code WW; BHI agar, 35-37° C., 20 to 24 hours; unit assumed
In short: as §1

[3] = system: Micrococcus luteus ATCC 4698; details: organism code PP; BHI agar, 35-37° C., 20 to 24 hours; unit assumed
In short: (§2)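 Plates of BHI agar were prepared with twelve aqueous dilutions of compound, then inoculated at 1:100 dilution, or 1:10 for slow growers like Streptococcus. After incubation they were inspected, and the lowest concentration yielding no growth, slight haze or sparse colonies was recorded as MIC.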

[4] = system: Micrococcus luteus ATCC 9341; details: organism code OO; BHI agar, 35-37° C., 20 to 24 hours; unit assumed
In short: as §2

[5] = system: Mycobacterium smegmatis ATCC 114; details: organism code UU; BHI agar, 35-37° C., 20 to 24 hours; unit assumed
In short: as §1

[6] = system: Nocardia Asteroides ATCC9970; details: organism code VV; BHI agar, 35-37° C., 20 to 24 hours; unit assumed
In short: as §1

[7] = system: Staphylococcus aureus 1775; details: organism code GG; BHI agar, 35-37° C., 20 to 24 hours; unit assumed
In short: as §1

[8] = system: Staphylococcus aureus A-5278; details: organism code CC; BHI agar, 35-37° C., 20 to 24 hours; unit assumed
In short: as §1

[9] = system: Staphylococcus aureus A5177; details: organism code BB; BHI agar, 35-37° C., 20 to 24 hours; unit assumed
In short: as §1

[10] = system: Staphylococcus aureus ATCC 6538P; details: organism code AA; BHI agar, 35-37° C., 20 to 24 hours; unit assumed
In short: as §1

[11] = system: Staphylococcus aureus CMX 553; details: organism code FF; BHI agar, 35-37° C., 20 to 24 hours; unit assumed
In short: as §1

[12] = system: Staphylococcus aureus CMX 642A; details: organism code DD; BHI agar, 35-37° C., 20 to 24 hours; unit assumed
In short: as §1

[13] = system: Staphylococcus aureus NCTC10649M; details: organism code EE; BHI agar, 35-37° C., 20 to 24 hours; unit assumed
In short: as §1

[14] = system: Staphylococcus epidermidis 3519; details: organism code HH; BHI agar, 35-37° C., 20 to 24 hours; unit assumed
In short: as §1

[15] = system: Streptococcus Pneumonia 5649; details: organism code ZZA; BHI agar, 35-37° C., 20 to 24 hours; unit assumed
In short: as §1

[16] = system: Streptococcus Pneumonia 5979; details: organism code ZZ; BHI agar, 35-37° C., 20 to 24 hours; unit assumed
In short: as §1

[17] = system: Streptococcus Pneumonia ATCC6303; details: organism code XX; BHI agar, 35-37° C., 20 to 24 hours; unit assumed
In short: as §1

[18] = system: Streptococcus Pneumonia GYR 1171; details: organism code YY; BHI agar, 35-37° C., 20 to 24 hours; unit assumed
In short: as §1

[19] = system: Streptococcus agalactiae CMX 508; details: organism code KK; BHI agar, 35-37° C., 20 to 24 hours; unit assumed
In short: as §1

[20] = system: Streptococcus bovis A-5169; details: organism code JJ; BHI agar, 35-37° C., 20 to 24 hours; unit assumed
In short: as §1

[21] = system: Streptococcus pyogenes 930; details: organism code MM; BHI agar, 35-37° C., 20 to 24 hours; unit assumed
In short: as §1

[22] = system: Streptococcus pyogenes EES61; details: organism code LL; BHI agar, 35-37° C., 20 to 24 hours; unit assumed
In short: as §1

[23] = system: Streptococcus pyogenes PIU 2548; details: organism code NN; BHI agar, 35-37° C., 20 to 24 hours; unit assumed
In short: as §1

| SMILES | MIC (Candida albicans CCH 442) | MIC [1] | MIC (Escherichia coli DC-2) | MIC (Escherichia coli JUHL) | MIC (Escherichia coli SS) | MIC [2] | MIC [3] | MIC [4] | MIC [5] | MIC [6] | MIC [7] | MIC [8] | MIC [9] | MIC [10] | MIC [11] | MIC [12] | MIC [13] | MIC [14] | MIC [15] | MIC [16] | also measured |
| --- | --- | --- | --- | --- | --- | --- | --- | --- | --- | --- | --- | --- | --- | --- | --- | --- | --- | --- | --- | --- | --- |
| CC[C@H]1OC(=O)[C@H](C)C(=O)[C@H](C)[C@@H](O[C@@H]2O[C@H](C)C[C@H](N(C)C)[C@H]2O)[C@](C)(OC/C=C/c2cncc(Br)c2)C[C@@H](C)C(=O)[C@H](C)[C@H]2NC(=O)O[C@@]21C [Example 40] | > 100 mg/L | 0.05 mg/L (≈ 0.0629 µM) | 50 mg/L (≈ 62.9 µM) | 100 mg/L (≈ 126 µM) | 0.39 mg/L (≈ 0.491 µM) | 4 mg/L (≈ 5.03 µM) | 0.2 mg/L (≈ 0.252 µM) | 0.02 mg/L (≈ 0.0252 µM) | 0.39 mg/L (≈ 0.491 µM) | 0.1 mg/L (≈ 0.126 µM) | > 100 mg/L | > 100 mg/L | 0.2 mg/L (≈ 0.252 µM) | 0.1 mg/L (≈ 0.126 µM) | 0.2 mg/L (≈ 0.252 µM) | 0.2 mg/L (≈ 0.252 µM) | 0.2 mg/L (≈ 0.252 µM) | 0.2 mg/L (≈ 0.252 µM) | 0.25 mg/L (≈ 0.315 µM) | > 128 mg/L | MIC [17]: 0.015 mg/L (≈ 0.0189 µM); MIC [18]: 0.015 mg/L (≈ 0.0189 µM); MIC [19]: 0.02 mg/L (≈ 0.0252 µM); MIC [20]: 0.02 mg/L (≈ 0.0252 µM); MIC [21]: 50 mg/L (≈ 62.9 µM); MIC [22]: 0.02 mg/L (≈ 0.0252 µM); MIC [23]: 0.1 mg/L (≈ 0.126 µM) |
| CC[C@H]1OC(=O)[C@H](C)C(=O)[C@H](C)[C@@H](O[C@@H]2O[C@H](C)C[C@H](N(C)C)[C@H]2O)[C@](C)(OC/C=C/c2cncc(-n3ccnc3)c2)C[C@@H](C)C(=O)[C@H](C)[C@H]2NC(=O)O[C@@]21C [Example 37] | > 100 mg/L | 0.05 mg/L (≈ 0.0639 µM) | 50 mg/L (≈ 63.9 µM) | 50 mg/L (≈ 63.9 µM) | 0.39 mg/L (≈ 0.499 µM) | 4 mg/L (≈ 5.12 µM) | 0.2 mg/L (≈ 0.256 µM) | 0.01 mg/L (≈ 0.0128 µM) | 3.1 mg/L (≈ 3.96 µM) | 0.1 mg/L (≈ 0.128 µM) | > 100 mg/L | > 100 mg/L | 0.1 mg/L (≈ 0.128 µM) | 0.1 mg/L (≈ 0.128 µM) | 0.1 mg/L (≈ 0.128 µM) | 0.1 mg/L (≈ 0.128 µM) | 0.2 mg/L (≈ 0.256 µM) | 0.1 mg/L (≈ 0.128 µM) | 2 mg/L (≈ 2.56 µM) | > 128 mg/L | MIC [17]: ≤ 0.004 mg/L; MIC [18]: ≤ 0.004 mg/L; MIC [19]: 0.02 mg/L (≈ 0.0256 µM); MIC [20]: 0.01 mg/L (≈ 0.0128 µM); MIC [21]: 25 mg/L (≈ 32 µM); MIC [22]: 0.02 mg/L (≈ 0.0256 µM); MIC [23]: 0.39 mg/L (≈ 0.499 µM) |
| CC[C@H]1OC(=O)[C@H](C)C(=O)[C@H](C)[C@@H](O[C@@H]2O[C@H](C)C[C@H](N(C)C)[C@H]2O)[C@](C)(OC/C=C/c2cnc(-c3cncnc3)s2)C[C@@H](C)C(=O)[C@H](C)[C@H]2NC(=O)O[C@@]21C [Example 59] | > 100 mg/L | 0.02 mg/L (≈ 0.025 µM) | 50 mg/L (≈ 62.5 µM) | 50 mg/L (≈ 62.5 µM) | 0.2 mg/L (≈ 0.25 µM) | 4 mg/L (≈ 5 µM) | 0.1 mg/L (≈ 0.125 µM) | 0.01 mg/L (≈ 0.0125 µM) | 3.1 mg/L (≈ 3.88 µM) | 0.02 mg/L (≈ 0.025 µM) | > 100 mg/L | > 100 mg/L | 0.1 mg/L (≈ 0.125 µM) | 0.1 mg/L (≈ 0.125 µM) | 0.1 mg/L (≈ 0.125 µM) | 0.1 mg/L (≈ 0.125 µM) | 0.1 mg/L (≈ 0.125 µM) | 0.1 mg/L (≈ 0.125 µM) | 0.5 mg/L (≈ 0.625 µM) | 4 mg/L (≈ 5 µM) | MIC [17]: ≤ 0.004 mg/L; MIC [18]: ≤ 0.004 mg/L; MIC [19]: 0.01 mg/L (≈ 0.0125 µM); MIC [20]: ≤ 0.005 mg/L; MIC [21]: 6.2 mg/L (≈ 7.75 µM); MIC [22]: 0.01 mg/L (≈ 0.0125 µM); MIC [23]: 0.2 mg/L (≈ 0.25 µM) |
